From patent US20240101572A1, “DIHYDROOXADIAZINONE COMPOUND AND PHARMACEUTICAL USE THEREOF” (Japan Tobacco Inc., priority 2022, published 2024)
Read-outs that look alike come from different tables or passages of the source.

How the values were obtained:
[1] = molecular target: full-length human PLD2 (Homo sapiens (Human), UniProt O14939); assay: Evaluation of human PLD2 enzyme inhibitory activity (Amplex Red / choline oxidase fluorescence); type: biochemical; conditions: for IC50: full-length human PLD2 enzyme, read-out: PLD2 IC50
Method: A method for measuring human PLD2 enzyme inhibitory activity using an enzyme in which a FLAG-tag is added to the N-terminus of full-length human PLD2 (1-933 amino acids) is shown below.
(§1) DNA fragment in which a FLAG-tag sequence is added to the 5′-end of full-length human PLD2 was amplified by PCR method, using commercially available human PLD2 gene (Promega KK) as a template. The amplified DNA fragment was fused with vector pVL1393 for baculovirus production (Pharmingen) digested with BamHI and EcoRI, using In-Fusion HD Cloning Kit (Takara Bio). The full-length human PLD2-expression plasmid DNA for baculovirus was isolated from Escherichia coli DH5a (TOYOBO) transformed with the obtained In-Fusion reaction product. Next, DNA fragment in which a FLAG-tag sequence is added to the 5′-end of full-length human PLD2 was amplified by PCR method, using the full-length human PLD2-expression plasmid DNA for baculovirus as a template. The amplified DNA fragment was fused with a DNA fragment in which a linker sequence is introduced into pcDNA3.4-TOPO (Life Technologies), using In-Fusion HD Cloning Kit (Takara Bio). The full-length human PLD2-expression plasmid DNA for animal cells was isolated from Escherichia coli DH5a transformed with the obtained In-Fusion reaction product. The base sequence of the full-length human PLD2 cloned into vector was determined by a Dye Terminator method using BigDye Terminator v3.1 Cycle Sequencing Kit (Applied Biosystems). The determined sequence was a sequence in which the FLAG-tag sequence was inserted at the 5′-end of the full-length human PLD2 (GenBank Accession Number: NM 002663).
(§2) Expi293F cells (Life Technologies) were cultured with shaking using Expi293 Expression Medium (Life Technologies) as a medium at 37° C. in the presence of 8% CO2. The gene introduction reagent PEI was prepared by dissolving Polyethylenimine Max (nominally MW 40,000) (Polysciences) in MilliQ water, adjusting the pH of the solution to 7.0 with NaOH to obtain a 1 mg/mL solution, and then filtering the solution through 0.22 μm filter. The full-length human PLD2-expression plasmid DNA for animal cells was transfected into Expi293F cells using PEI, and after 48 hours of shaking culture, the cells were collected and stored at −80° C.
(§3) To the full-length human PLD2-expressed cells was added a Homogenate buffer (20 mmol/L Na-phosphate pH 7.5, 250 mmol/L NaCl, 1 mmol/L MgCl2, 1% β-OG, 0.05 mmol/L DTT+complete EDTA-free (Roche Diagnostics K.K.)), and the cells were lysed by Microfluidizer Processor M-110EH (Mizuho Kogyo Co., Ltd.). The lysate was centrifuged at 10,100×g at 4° C. for 15 minutes, and the supernatant was collected and filtered through 0.45 μm filter. To the centrifuged supernatant was added ANTI-FLAG M2 Affinity Gel (SIGMA-Aldrich) resin equilibrated with a Homogenate buffer, and the mixed solution was stirred at 4° C. for 1 hr or more. The mixed solution was loaded onto Poly-Prep column, and the resin was washed with a Wash buffer (20 mmol/L Na-phosphate pH 7.5, 150 mmol/L NaCl, 1 mmol/L MgCl2, 0.02% Triton, 0.05 mmol/L DTT). A Wash buffer containing 400 μg/mL DYKDDDDK Peptide (Scrum Inc.) was added to the column to elute the protein bound to the resin. The eluted fractions were subjected to SDS-PAGE followed by CBB staining to identify the fractions containing the full-length human PLD2. The eluted fractions of the full-length human PLD2 were collected and concentrated using Amicon Ultra-15 100k (Merck Millipore). The concentrated fractions were collected, flash-frozen in liquid nitrogen and stored at −80° C.
(§4) A DMSO or test substance solution (the DMSO final concentration: 5%) prepared by diluting DMSO or test substance with an Assay buffer (50 mmol/L HEPES pH 7.5, 80 mmol/L KCl, 3 mmol/L EGTA, 3.6 mmol/L MgCl2, 0.01% NP-40, 0.1% BSA), and the solution was added to a 384 well Assay Plate (Black, Polystyrene, Non-Treated, Cat No. 3573, Corning) by 5 μL/well. […]

[2] = molecular target: full-length human PLD1 (Homo sapiens (Human), UniProt Q13393); assay: Evaluation of human PLD1 enzyme inhibitory activity (Amplex Red / choline oxidase fluorescence); type: biochemical; conditions: for IC50: full-length human PLD1 enzyme, read-out: PLD1 IC50
Method: A method for measuring human PLD1 enzyme inhibitory activity using an enzyme in which a FLAG-tag is added to the N-terminus of full-length human PLD1 (1-1036 amino acids) is shown below.
as §1, with “PLD1” for “PLD2”, “PLD1-expression” for “PLD2-expression”, “NM_001130081).” for “NM 002663).”
as §2, with “PLD1-expression” for “PLD2-expression”
as §3, with “PLD1-expressed” for “PLD2-expressed”, “PLD1.” for “PLD2.”, “PLD1” for “PLD2”
as §4

Chain of full-length human PLD2 (O14939 whole entry, the tested form may be a part): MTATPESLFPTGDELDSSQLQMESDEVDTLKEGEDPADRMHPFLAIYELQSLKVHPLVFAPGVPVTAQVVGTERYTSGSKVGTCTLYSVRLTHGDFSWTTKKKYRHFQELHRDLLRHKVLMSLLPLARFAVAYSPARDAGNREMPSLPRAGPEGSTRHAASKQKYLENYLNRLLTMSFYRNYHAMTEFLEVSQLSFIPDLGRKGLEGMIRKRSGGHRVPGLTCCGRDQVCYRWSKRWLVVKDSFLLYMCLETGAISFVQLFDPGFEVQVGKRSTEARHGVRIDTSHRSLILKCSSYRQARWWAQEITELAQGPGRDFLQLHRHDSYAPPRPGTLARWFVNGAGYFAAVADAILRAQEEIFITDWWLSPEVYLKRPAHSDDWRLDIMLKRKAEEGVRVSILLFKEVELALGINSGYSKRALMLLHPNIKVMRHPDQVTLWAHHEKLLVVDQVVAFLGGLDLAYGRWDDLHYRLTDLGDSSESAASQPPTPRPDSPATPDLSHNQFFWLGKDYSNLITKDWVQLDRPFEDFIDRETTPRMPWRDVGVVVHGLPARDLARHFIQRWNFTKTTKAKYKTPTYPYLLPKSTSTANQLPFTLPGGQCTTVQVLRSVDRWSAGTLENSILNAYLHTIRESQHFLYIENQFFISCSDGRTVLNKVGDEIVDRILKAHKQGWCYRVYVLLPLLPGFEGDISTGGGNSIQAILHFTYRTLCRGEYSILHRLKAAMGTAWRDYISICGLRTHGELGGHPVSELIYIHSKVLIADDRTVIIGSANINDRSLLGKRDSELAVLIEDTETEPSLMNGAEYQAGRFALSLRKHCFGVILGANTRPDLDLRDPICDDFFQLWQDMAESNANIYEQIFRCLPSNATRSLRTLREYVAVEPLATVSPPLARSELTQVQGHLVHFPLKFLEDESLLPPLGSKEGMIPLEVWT
Chain of full-length human PLD1 (Q13393 other isoform, or with tags, fused parts or gaps): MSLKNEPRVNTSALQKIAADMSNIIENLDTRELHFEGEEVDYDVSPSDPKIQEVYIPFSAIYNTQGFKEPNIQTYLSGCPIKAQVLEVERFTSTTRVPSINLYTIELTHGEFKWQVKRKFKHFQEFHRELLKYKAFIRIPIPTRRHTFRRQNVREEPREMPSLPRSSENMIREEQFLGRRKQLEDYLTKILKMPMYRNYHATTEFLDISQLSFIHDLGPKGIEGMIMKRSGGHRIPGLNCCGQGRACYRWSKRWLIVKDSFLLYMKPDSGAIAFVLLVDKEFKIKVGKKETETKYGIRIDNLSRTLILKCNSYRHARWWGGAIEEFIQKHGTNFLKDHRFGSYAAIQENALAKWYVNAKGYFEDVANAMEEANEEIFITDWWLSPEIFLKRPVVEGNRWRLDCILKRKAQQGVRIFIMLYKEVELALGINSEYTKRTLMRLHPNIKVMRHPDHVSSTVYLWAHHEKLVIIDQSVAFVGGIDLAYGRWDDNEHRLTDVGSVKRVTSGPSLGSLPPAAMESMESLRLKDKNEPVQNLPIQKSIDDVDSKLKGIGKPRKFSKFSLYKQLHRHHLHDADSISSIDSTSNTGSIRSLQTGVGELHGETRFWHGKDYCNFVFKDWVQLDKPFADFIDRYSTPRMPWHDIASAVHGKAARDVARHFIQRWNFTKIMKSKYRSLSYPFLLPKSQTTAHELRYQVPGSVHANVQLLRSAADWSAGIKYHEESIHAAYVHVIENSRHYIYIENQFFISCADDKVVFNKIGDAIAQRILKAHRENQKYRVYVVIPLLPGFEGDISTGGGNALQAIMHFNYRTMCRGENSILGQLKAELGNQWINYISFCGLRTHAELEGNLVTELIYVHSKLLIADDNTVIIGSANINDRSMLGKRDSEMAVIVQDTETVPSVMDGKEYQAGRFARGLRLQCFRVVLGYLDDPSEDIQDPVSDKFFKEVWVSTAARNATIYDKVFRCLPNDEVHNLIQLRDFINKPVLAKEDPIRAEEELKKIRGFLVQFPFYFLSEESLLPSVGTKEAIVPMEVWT

Row | Compound | IC50 [1] | IC50 [2] | other results
1 | Cc1cc(C(=O)N[C@@H](C)CN2CCC3(CC2)OC(=O)NN=C3c2cccc(C(F)(F)F)c2Br)[nH]n1 [Example 2-052] | < 10 nM | 21 nM | 
2 | Cc1ncccc1C1=NNC(=O)O[C@]12CC[C@@H](C[C@H](C)NC(=O)c1cc(Cl)no1)CC2 [Example 103] | 379 nM | 170 nM | 
3 | CNC(=O)C(=O)N[C@@H](C)C[C@H]1CC[C@]2(CC1)OC(=O)NN=C2c1ccc(OC(F)F)cc1Br [Example 140] | < 10 nM | < 10 nM | 
4 | CNC(=O)C(=O)N[C@@H](C)C[C@H]1CC[C@]2(CC1)OC(=O)NN=C2c1cnc(N2CCC(F)(F)C2)cc1C [Example 248] | < 10 nM | 17 nM | 
5 | CNC(=O)C(=O)N[C@@H](C)C[C@H]1CC[C@]2(CC1)OC(=O)NN=C2c1cc(C#N)ccc1Br [Example 198, N^1—((S)-1-(cis-5-(2-bromo-5-cyanophenyl)-2-oxo-1-oxa-3,4-diazaspiro[5.5]undec-4-en-9-yl)propan-2-yl)-N^2-methyloxamide] | < 10 nM | 11 nM | 
6 | C[C@@H](C[C@H]1CC[C@]2(CC1)OC(=O)NN=C2c1ccc(C#N)cc1Br)NC(=O)N1CCn2nccc2C1 [Example 270] | < 10 nM | 17 nM | 
7 | C[C@@H](C[C@H]1CC[C@]2(CC1)OC(=O)NN=C2c1ccc(S(C)(=O)=O)cc1Cl)NC(=O)c1cc(Cl)no1 [Example 52] | < 10 nM | 21 nM | 
8 | Cc1cc(Cl)c(C2=NNC(=O)O[C@]23CC[C@@H](C[C@H](C)NC(=O)c2cc(C)n[nH]2)CC3)cn1 [Example 231] | 12 nM | 24 nM | 
9 | CNC(=O)C(=O)N[C@@H](C)C[C@H]1CC[C@]2(CC1)OC(=O)NN=C2c1cc(C(C)(C)O)ccc1Br [Example 2-026] | < 10 nM | 12 nM | 
10 | Cc1cc(C(=O)N[C@@H](C)C[C@H]2CC[C@]3(CC2)OC(=O)NN=C3c2ccc(C(=O)O)cc2C)[nH]n1 [Example 201] | 371 nM | 328 nM | 
11 | C[C@@H](C[C@H]1CC[C@]2(CC1)OC(=O)NN=C2c1cc(C#N)ccc1Br)NC(=O)NC1CC1 [Example 222, 1-((S)-1-(cis-5-(2-bromo-5-cyanophenyl)-2-oxo-1-oxa-3,4-diazaspiro[5.5]undec-4-en-9-yl)propan-2-yl)-3-cyclopropylurea] | 171 nM | 59 nM | 
12 | C[C@@H](C[C@H]1CC[C@]2(CC1)OC(=O)NN=C2c1ccc(F)cc1Br)NC(=O)C1CCC(=O)N1 (mixture of isomers) [Example 18] | 157 nM | 852 nM | 
13 | C[C@@H](CN1CCC2(CC1)OC(=O)NN=C2c1cc(C#N)ccc1Br)NC(=O)c1cc(F)c[nH]1 [Example 302] | < 10 nM | 17 nM | 
14 | COc1cc(C)c(C2=NNC(=O)O[C@]23CC[C@@H](C[C@H](C)NC(=O)CC#N)CC3)cn1 [Example 263] | 4500 nM | 2780 nM | 
15 | CNC(=O)C(=O)N[C@@H](C)CN1CC[C@@]2(C[C@H]1C)OC(=O)NN=C2c1ccc(C#N)cc1Cl [Example 233] | 1800 nM | 1860 nM | 
16 | CNC(=O)C(=O)N[C@@H](C)C[C@H]1CC[C@]2(CC1)OC(=O)NN=C2c1ccc(-c2ccccc2)cc1-c1ccccc1 [Example 73] | 15 nM | 23 nM | 
17 | Cc1cc(C(=O)N[C@@H](C)CN2CCC3(CC2)OC(=O)NN=C3c2ccc(Cl)cc2C)[nH]n1 [Example 217] | < 10 nM | 17 nM | 
18 | Cc1cc(C(=O)N[C@@H](C)CN2CCC3(CC2)OC(=O)NN=C3c2ccc(Br)cc2C(F)(F)F)[nH]n1 [Example 331] | 22 nM | 32 nM | 
19 | CNC(=O)C(=O)N[C@@H](C)C[C@]1(C#N)CC[C@@]2(CC1)OC(=O)N(C)N=C2c1cc(C#N)ccc1Br [Example 2-112] |  |  | inhibition at 10 µM ([1]; read-out: human PLD2 % inhibition at 10 μM): 39%; inhibition at 10 µM ([1]; read-out: inhibition rate of PLD2 at 10 μM compound): 39%
20 | CNC(=O)C(=O)N[C@@H](C)C[C@]1(C#N)CC[C@@]2(CC1)OC(=O)NN=C2c1cc(OCC(F)F)ncc1Br [Example 2-099] |  |  | inhibition at 10 µM ([2]; read-out: human PLD1 % inhibition at 10 μM): 21%; inhibition at 10 µM ([2]; read-out: inhibition rate of PLD1 at 10 μM compound): 21%
